Experimental findings from patent publication US12351580B2, “NLRP3 modulators” (Innate Tumor Immunity, Inc., priority 2017, dated 2025) are described below.

pEC50: −log10 of the molar value.

The target of one assay is T1, TLR7 (Homo sapiens, UniProt Q9NYK1).
T1 construct: host or cells: HEK-Blue cells (human HEK) co-expressing TLR7 and an NF-kB/AP1-inducible SEAP reporter
T1 sequence (Q9NYK1 27-1049): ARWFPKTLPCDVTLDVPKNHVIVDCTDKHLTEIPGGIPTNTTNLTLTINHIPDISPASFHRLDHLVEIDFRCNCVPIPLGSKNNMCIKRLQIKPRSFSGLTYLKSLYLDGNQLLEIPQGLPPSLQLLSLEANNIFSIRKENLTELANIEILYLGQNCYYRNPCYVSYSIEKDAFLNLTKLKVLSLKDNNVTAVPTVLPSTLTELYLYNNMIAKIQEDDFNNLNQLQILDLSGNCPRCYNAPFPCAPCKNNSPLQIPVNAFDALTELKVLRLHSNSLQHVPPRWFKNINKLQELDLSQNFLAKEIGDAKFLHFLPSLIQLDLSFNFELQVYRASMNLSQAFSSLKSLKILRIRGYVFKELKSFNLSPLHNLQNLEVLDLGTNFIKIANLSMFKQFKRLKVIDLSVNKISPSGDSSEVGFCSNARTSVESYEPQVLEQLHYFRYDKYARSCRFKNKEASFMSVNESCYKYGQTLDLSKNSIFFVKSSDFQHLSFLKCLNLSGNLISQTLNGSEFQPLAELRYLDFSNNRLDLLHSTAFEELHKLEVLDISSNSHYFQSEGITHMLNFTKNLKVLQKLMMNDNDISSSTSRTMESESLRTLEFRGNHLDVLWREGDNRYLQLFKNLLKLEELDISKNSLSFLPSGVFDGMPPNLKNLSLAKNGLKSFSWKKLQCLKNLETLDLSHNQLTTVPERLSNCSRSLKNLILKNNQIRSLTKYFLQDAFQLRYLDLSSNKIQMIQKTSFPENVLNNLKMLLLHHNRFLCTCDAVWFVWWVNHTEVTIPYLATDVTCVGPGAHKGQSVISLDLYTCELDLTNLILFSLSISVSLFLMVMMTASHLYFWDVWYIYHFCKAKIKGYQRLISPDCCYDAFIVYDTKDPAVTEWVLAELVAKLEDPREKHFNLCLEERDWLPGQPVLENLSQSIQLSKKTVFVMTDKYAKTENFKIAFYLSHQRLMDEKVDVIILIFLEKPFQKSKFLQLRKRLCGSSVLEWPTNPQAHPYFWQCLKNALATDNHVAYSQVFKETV
The assay can be described thus: In vitro human TLR7 binding reporter assay (HEK-Blue, NF-kB/AP1-inducible SEAP). It counts as cell-based. The conditions noted are these: activity range symbols. As for the experimental part: (§1) In Vitro Human TLR7 and TLR8 Binding Reporter Assays
(§2) Logarithmically-growing human HEK-Blue cells co-expressing a TLR7 or TLR8 gene and a NF-kB/AP1-inducible SEAP (secreted embryonic alkaline phosphatase; Invivogen, San Diego, CA) reporter gene are added to individual wells of a 384-well plate (15,000 cells per 20 μL per well) and maintained for 24 h at 37° C., 5% CO2. Test compounds or DMSO are distributed to separate wells the next day using acoustic liquid handling technology (100 nL per well) and cells are subsequently incubated for 18 h at 37° C., 5% CO2. Cellular SEAP production is measured using an Envision plate reader instrument thirty minutes after adding freshly-made Quanti-Blue reagent (prepared by following manufacturer instructions; Invivogen, San Diego, CA) to the HEK-Blue TLR Nf-kB-SEAP cell reactions. All EC50 values (half-maximal effective concentration) are determined using proprietary data analysis software.
A general note: A reporter such as luciferase makes a cellular process visible.

The next assay addresses T2, TLR8 (Homo sapiens, UniProt Q9NR97).
T2 construct: host or cells: HEK-Blue cells (human HEK) co-expressing TLR8 and an NF-kB/AP1-inducible SEAP reporter
T2 sequence (Q9NR97 27-1041): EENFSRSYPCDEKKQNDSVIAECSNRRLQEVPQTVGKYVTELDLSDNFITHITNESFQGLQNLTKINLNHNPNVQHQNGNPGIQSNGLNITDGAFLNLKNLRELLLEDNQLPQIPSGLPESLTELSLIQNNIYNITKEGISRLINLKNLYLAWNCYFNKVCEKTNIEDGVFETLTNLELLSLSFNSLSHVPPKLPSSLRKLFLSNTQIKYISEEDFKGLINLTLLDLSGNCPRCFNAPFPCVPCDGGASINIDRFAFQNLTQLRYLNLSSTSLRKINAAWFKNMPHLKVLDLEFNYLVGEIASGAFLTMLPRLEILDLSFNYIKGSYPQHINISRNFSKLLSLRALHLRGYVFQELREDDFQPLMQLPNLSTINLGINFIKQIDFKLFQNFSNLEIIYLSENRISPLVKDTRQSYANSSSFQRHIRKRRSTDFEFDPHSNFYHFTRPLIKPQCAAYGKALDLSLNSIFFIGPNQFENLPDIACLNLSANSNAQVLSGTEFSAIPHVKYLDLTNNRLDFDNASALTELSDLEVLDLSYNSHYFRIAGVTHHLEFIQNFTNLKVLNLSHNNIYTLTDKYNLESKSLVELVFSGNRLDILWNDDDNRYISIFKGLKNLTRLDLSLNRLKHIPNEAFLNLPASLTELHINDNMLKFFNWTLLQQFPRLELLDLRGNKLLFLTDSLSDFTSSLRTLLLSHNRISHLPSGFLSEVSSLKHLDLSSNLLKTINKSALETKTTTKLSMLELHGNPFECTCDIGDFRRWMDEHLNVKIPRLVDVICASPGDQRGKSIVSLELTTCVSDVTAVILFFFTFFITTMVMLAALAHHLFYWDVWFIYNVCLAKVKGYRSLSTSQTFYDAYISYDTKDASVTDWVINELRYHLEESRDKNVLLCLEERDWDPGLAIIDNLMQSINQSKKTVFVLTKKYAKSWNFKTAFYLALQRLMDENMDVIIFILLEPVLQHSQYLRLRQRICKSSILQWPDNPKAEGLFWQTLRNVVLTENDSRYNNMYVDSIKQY
The assay can be described thus: In vitro human TLR8 binding reporter assay (HEK-Blue, NF-kB/AP1-inducible SEAP). It counts as cell-based. The note with it: activity range symbols. On the procedure: as §1, §2

Consider `CCN(Cc1nc2c(N)nc3ccccc3c2n1CCC(=O)NC)C(C)=O` [Compound 199], for which the pEC50 on TLR7 and on TLR8 was below 4.00 throughout.

Usually pEC50 stands for the negative decadic logarithm of the EC50, by convention in mol/L. The low end stands for a large EC50, the high end for a small EC50.
